Source: patent publication US20260297136A1, “PEPTIDES WITH LIPOLYTIC, ANTI-LIPOGENIC, ANTIFIBROTIC AND ANTI-INFLAMMATORY ACTIVITY” (FUNDACIÓ HOSPITAL UNIVERSITARI VALL D'HEBRON - INSTITUT DE …, priority 2023, published 2026)

System: CCl4-induced fibrosis mouse model
Assay: Preventive effects in a CCl4-induced fibrosis mouse model, Example 5
Type: in vivo, C57BL6/J male mice
Conditions: 20 mg/kg/day sc, vs vehicle
Method: C57BL6/J male mice were purchased and kept for quarantine and acclimatization for a period of about 7 days before initiation of every experiment. Mice were housed in clean and sterilized mice cages and maintained in a controlled environment with 22+3° C. temperature, 50+20% humidity, a light/dark cycle of 12 hours each and 15-20 fresh air changes per hour.
Preventive effect of a daily subcutaneous injection of GP6 (20 mg/kg/day) in a mouse model of fibrosis induced by twice a week intraperitoneal injection of CCl4 (1 ml/Kg diluted in olive oil 1:5) during a 4 weeks period. A group of control mice (n=6) was treated with daily subcutaneous injections of vehicle (water) and the other group (n=10) with daily subcutaneous injection of GP6 (20 mg/kg/day) during 10 weeks.
At the end of the experiment mice were sacrificed, serum samples were extracted, tissues were weighted and part was fixed in paraformaldehyde for histology studies and part immediately frozen at −80 C for mRNA and protein expression studies.
The Histology studies, AST and ALT measurements as well the RNA analysis were performed as described in example 4.

CC[C@@H](C)[C@@H](NC(=O)[C@H](NC(=O)CNC(=O)[C@@H](CCC(=O)O)NC(=O)[C@H]1CCCN1C(=O)[C@@H](CC(=O)O)NC(=O)[C@@H](Cc1c[nH]c2ccccc12)NC(=O)[C@H](NC(=O)[C@@H](CCCNC(=N)N)NC(=O)[C@H](NC(=O)[C@@H](CCC(=O)O)NC(=O)[C@@H](Cc1ccccc1)NC(=O)[C@@H](CO)NC(=O)[C@@H](CO)NC(=O)[C@@H](CO)NC(=O)[C@H](NC(=O)[C@@H](CCCCN)NC(=O)[C@H](N)[C@H](C)O)[C@H](C)O)C(C)C)[C@H](C)O)C(C)C)C(=O)N[C@H](Cc1ccccc1)C(=O)N[C@H](Cc1ccc(O)cc1)C(=O)O [GP6]
liver weight: did not show any significance between groups | reduction of ALT serum levels: ~50% | reduction of Collagen (Col1A1) expression in hepatic tissue: more than 50% | reduction of hepatic fibrosis (picrosirius staining, ImageJ): approximately 37% | reduction of hepatic inflammation (F4/80 mRNA levels): more than 50% | total body weight lost induced by CCl4: mice treated with vehicle lost more body weight when compared with GP6 treated mice
